The OligoGym collection
Values joined by “and” are separate entries in the source; they are usually repeats but may differ in a detail not shown here. Identical values can stand only once. HELM strings list units from the 5' end as sugar, base in round brackets, then linkage (d deoxyribose, r ribose, m 2'-O-methyl, p phosphodiester). Strings are as the collection lists them, not checked against the first reports. ss, as = sense and antisense strand; [una] = unlocked nucleic acid; [s4r] = 4'-thioribose; [fl2r] = 2'-fluoro

Settings: siRNA
Note: test system not given here.

Substance	target mRNA knockdown
RNA1{r(G)p.r(C)p.r(G)p.r(A)p.r(G)p.r(C)p.r(A)p.r(G)p.r(A)p.r(G)p.r(A)p.r(A)p.r(U)p.r(C)p.m(U)p.r(A)p.r(C)p.r(C)p.r(U)p.r(T)p.r(T)}|RNA2{r(A)p.r(G)p.r(G)p.m(U)p.r(A)p.r(G)p.r(A)p.r(U)p.r(U)p.r(C)p.r(U)p.r(C)p.r(U)p.r(G)p.r(C)p.r(U)p.r(C)p.r(G)p.r(C)p.r(T)p.r(T)}$$$RNA1{StrandType:ss}|RNA2{StrandType:as}$	90%
RNA1{r(G)p.r(A)p.r(C)p.r(A)p.r(A)p.r(G)p.r(G)p.r(G)p.r(A)p.r(A)p.r(G)p.r(G)p.r(U)p.m(U)p.r(A)p.r(G)p.r(C)p.r(C)p.r(U)p.r(T)p.r(T)}|RNA2{r(A)p.r(G)p.r(G)p.r(C)p.m(U)p.r(A)p.r(A)p.r(C)p.r(C)p.r(U)p.r(U)p.r(C)p.r(C)p.r(C)p.r(U)p.r(U)p.r(G)p.r(U)p.r(C)p.r(T)p.r(T)}$$$RNA1{StrandType:ss}|RNA2{StrandType:as}$	72%
RNA1{r(G)p.r(G)p.r(A)p.r(A)p.r(G)p.r(A)p.r(A)p.r(G)p.r(A)p.[fl2r](U)p.r(A)p.r(G)p.r(A)p.r(G)p.[fl2r](C)p.r(A)p.r(U)p.r(C)p.r(C)p.r(T)p.r(T)}|RNA2{r(G)p.r(G)p.r(A)p.[fl2r](U)p.r(G)p.r(C)p.r(U)p.r(C)p.[fl2r](U)p.r(A)p.r(U)p.r(C)p.r(U)p.r(U)p.r(C)p.r(U)p.r(U)p.r(C)p.r(C)p.r(T)p.r(T)}$$$RNA1{StrandType:ss}|RNA2{StrandType:as}$	37%
RNA1{[s4r](C)p.[s4r](G)p.r(U)p.r(A)p.r(C)p.r(G)p.r(C)p.r(G)p.r(G)p.r(A)p.r(A)p.r(U)p.r(A)p.r(C)p.r(U)p.r(U)p.r(C)p.r(G)p.r(A)p.r(T)p.r(T)}|RNA2{[s4r](U)p.[s4r](C)p.r(G)p.r(A)p.r(A)p.r(G)p.r(U)p.r(A)p.r(U)p.r(U)p.r(C)p.r(C)p.r(G)p.r(C)p.r(G)p.r(U)p.r(A)p.[s4r](C)p.[s4r](G)p.r(T)p.r(T)}$$$RNA1{StrandType:ss}|RNA2{StrandType:as}$	90.4%
RNA1{r(G)p.r(U)p.r(A)p.r(U)p.r(G)p.r(A)p.r(C)p.r(C)p.r(G)p.r(A)p.r(C)p.r(U)p.r(A)p.r(C)p.r(G)p.r(C)p.r(G)p.r(U)p.r(A)p.r(T)p.r(T)}|RNA2{r(U)p.[una](U)p.r(C)p.r(A)p.r(G)p.r(U)p.r(G)p.r(U)p.r(G)p.r(A)p.r(U)p.r(G)p.r(A)p.r(C)p.r(A)p.r(C)p.r(U)p.r(U)p.r(G)p.r(T)p.r(T)}$$$RNA1{StrandType:ss}|RNA2{StrandType:as}$	0% and 2%
RNA1{m(U)p.r(U)p.m(A)p.r(C)p.m(A)p.r(A)p.m(A)p.r(G)p.m(G)p.r(A)p.m(U)p.r(C)p.m(U)p.r(C)p.m(C)p.r(U)p.m(C)p.r(C)p.m(C)p.r(T)p.r(T)}|RNA2{r(G)p.r(G)p.r(G)p.m(A)p.r(G)p.r(G)p.m(A)p.r(G)p.m(A)p.r(U)p.r(C)p.r(C)p.r(U)p.r(U)p.r(U)p.r(G)p.r(U)p.m(A)p.m(A)p.r(T)p.r(T)}$$$RNA1{StrandType:ss}|RNA2{StrandType:as}$	51%
RNA1{m(U)p.r(U)p.m(U)p.r(G)p.m(A)p.r(U)p.m(C)p.r(A)p.m(G)p.r(C)p.m(G)p.r(G)p.m(A)p.r(G)p.m(A)p.r(C)p.m(U)p.r(C)p.m(G)p.r(T)p.r(T)}|RNA2{r(C)p.r(G)p.r(A)p.r(G)p.r(U)p.r(C)p.r(U)p.r(C)p.r(C)p.m(G)p.r(C)p.r(U)p.r(G)p.r(A)p.m(U)p.r(C)p.r(A)p.r(A)p.r(A)p.r(T)p.r(T)}$$$RNA1{StrandType:ss}|RNA2{StrandType:as}$	49%
RNA1{r(A)p.r(G)p.r(A)p.r(A)p.r(A)p.r(C)p.r(G)p.m(C)p.r(A)p.r(G)p.m(U)p.m(A)p.r(A)p.r(U)p.r(C)p.r(C)p.r(G)p.r(G)p.r(A)p.r(T)p.r(T)}|RNA2{r(U)p.r(C)p.r(C)p.r(G)p.r(G)p.r(A)p.r(U)p.m(U)p.r(A)p.r(C)p.m(U)p.r(G)p.r(C)p.r(G)p.r(U)p.r(U)p.r(U)p.r(C)p.r(U)p.r(T)p.r(T)}$$$RNA1{StrandType:ss}|RNA2{StrandType:as}$	78%
RNA1{r(A)p.m(C)p.m(A)p.r(G)p.r(A)p.r(A)p.r(A)p.r(G)p.m(A)p.r(G)p.r(U)p.r(U)p.r(C)p.r(G)p.r(A)p.r(G)p.r(G)p.r(A)p.r(G)p.r(T)p.r(T)}|RNA2{r(C)p.r(U)p.r(C)p.r(C)p.r(U)p.r(C)p.r(G)p.r(A)p.r(A)p.r(C)p.r(U)p.r(C)p.r(U)p.r(U)p.r(U)p.r(C)p.m(U)p.r(G)p.r(U)p.r(T)p.r(T)}$$$RNA1{StrandType:ss}|RNA2{StrandType:as}$	61%
RNA1{r(A)p.r(G)p.r(C)p.r(C)p.r(U)p.r(C)p.[fl2r](C)p.r(A)p.r(A)p.r(A)p.r(C)p.r(U)p.r(C)p.r(C)p.[fl2r](U)p.r(A)p.r(G)p.r(C)p.r(U)p.r(T)p.r(T)}|RNA2{r(A)p.r(G)p.r(C)p.r(U)p.r(A)p.r(G)p.r(G)p.r(A)p.r(G)p.r(U)p.r(U)p.r(U)p.r(G)p.r(G)p.r(A)p.r(G)p.r(G)p.r(C)p.r(U)p.r(T)p.r(T)}$$$RNA1{StrandType:ss}|RNA2{StrandType:as}$	32%
RNA1{[fl2r](A)p.r(G)p.[fl2r](C)p.r(C)p.[fl2r](C)p.r(A)p.[fl2r](G)p.r(A)p.[fl2r](U)p.r(A)p.[fl2r](G)p.r(C)p.[fl2r](U)p.r(C)p.[fl2r](U)p.r(U)p.[fl2r](C)p.r(A)p.[fl2r](G)p.r(T)p.r(T)}|RNA2{r(C)p.r(U)p.r(G)p.r(A)p.r(A)p.r(G)p.r(A)p.r(G)p.r(C)p.r(U)p.r(A)p.r(U)p.r(C)p.r(U)p.r(G)p.r(G)p.r(G)p.r(C)p.r(U)p.r(T)p.r(T)}$$$RNA1{StrandType:ss}|RNA2{StrandType:as}$	35%
RNA1{m(U)p.r(A)p.r(A)p.r(A)p.r(G)p.r(C)p.m(U)p.r(G)p.r(G)p.r(A)p.r(A)p.r(A)p.r(G)p.r(G)p.r(G)p.r(A)p.r(C)p.r(G)p.r(G)p.r(T)p.r(T)}|RNA2{r(C)p.r(C)p.r(G)p.r(U)p.r(C)p.r(C)p.r(C)p.r(U)p.r(U)p.r(U)p.r(C)p.m(C)p.r(A)p.r(G)p.r(C)p.r(U)p.r(U)p.m(U)p.r(A)p.r(T)p.r(T)}$$$RNA1{StrandType:ss}|RNA2{StrandType:as}$	65%
RNA1{r(C)p.r(C)p.r(G)p.r(A)p.r(G)p.r(A)p.r(G)p.m(C)p.r(U)p.r(C)p.m(U)p.r(C)p.r(C)p.m(U)p.r(A)p.r(C)p.r(C)p.r(U)p.r(U)p.r(T)p.r(T)}|RNA2{r(A)p.r(A)p.r(G)p.r(G)p.m(U)p.r(A)p.r(G)p.r(G)p.r(A)p.r(G)p.r(A)p.r(G)p.r(C)p.r(U)p.r(C)p.r(U)p.r(C)p.r(G)p.r(G)p.r(T)p.r(T)}$$$RNA1{StrandType:ss}|RNA2{StrandType:as}$	72%
RNA1{r(C)p.r(U)p.r(G)p.r(A)p.r(C)p.r(C)p.r(G)p.r(G)p.r(A)p.r(A)p.r(G)p.r(C)p.r(G)p.r(C)p.r(U)p.m(U)p.r(A)p.r(A)p.r(A)p.r(T)p.r(T)}|RNA2{r(U)p.r(U)p.m(U)p.r(A)p.r(A)p.r(G)p.r(C)p.r(G)p.r(C)p.r(U)p.r(U)p.r(C)p.r(C)p.r(G)p.r(G)p.r(U)p.r(C)p.r(A)p.r(G)p.r(T)p.r(T)}$$$RNA1{StrandType:ss}|RNA2{StrandType:as}$	86%
